The record followed here is patent US10363257B2 (ZENITH EPIGENETICS LTD., priority 2013, dated 2019).

Assay [1] concerns the target T1, Brd4 bromodomain 1 (BRD4(1)) (Homo sapiens, UniProt O60885).
T1 construct: made in house; host or cells: E. coli BL21(DE3)
Nature of the assay: Inhibition of tetra-acetylated histone H4 binding to Brd4 bromodomain 1 (TR-FRET). The settings on record: tetra-acetylated histone H4 peptide, first bromodomain of Brd4. An outline of the steps: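 His-tagged BRD4(1) from E. coli (200 nM) with biotinylated tetra-acetylated H4 peptide (25-50 nM), Eu-cryptate streptavidin and XL665 anti-His, in HEPES pH 7.4/phosphate/KF buffer, 0.2% DMSO. After 2 h at room temperature, TR-FRET 665/620 nm ratio read; IC50 from dose-response curves.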
For orientation: Time-resolved FRET reads energy transfer from a long-lived donor to a nearby acceptor.

For a further assay, the system named is human AML MV-4-11 cells. Nature of the assay: Inhibition of cell proliferation in MV4-11 cells (CellTiter Aqueous One). To be noted: for IC50: MV4-11, 72 h. It is filed as cell-based. The method, boiled down: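 Exponentially growing MV-4-11 cells (5×10^4/well) were treated immediately with two-fold dilutions of compound from 30 μM to 0.2 μM, in triplicate, for 72 h at 37° C, 5% CO2. Viability was measured by MTS absorbance at 490 nm after 3–4 h. Proliferation relative to DMSO after blank correction gave IC50.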

The next assay relates to c-myc. Nature of the assay: Inhibition of c-myc expression (mRNA, real-time PCR) in MV4-11 cells. It is filed as cell-based. To be noted: Human AML MV4-11 cells, 3 h, cMYC mRNA. An outline of the steps:
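MV4-11 cells treated 3 h at 37° C with increasing compound concentrations or 0.1% DMSO, in triplicate. cMYC mRNA quantified by one-step TaqMan real-time PCR, Ct normalized to internal control (Cyclophilin primers used), fold expression relative to control.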
(In general: Quantitative PCR measures a nucleic acid by following its amplification.)

The subject of a further assay is hIL-6 mRNA. Nature of the assay: Inhibition of hIL-6 mRNA transcription in LPS-stimulated U937 cells. It is filed as cell-based. To be noted: Homo sapiens, U-937; PMA-differentiated U937 cells, 1 h pretreatment, 1 ug/mL LPS stimulation, 3 h; read-out: IL-6 activity (Inhibition of hIL-6 mRNA Transcription). An outline of the steps:
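U937 cells differentiated 3 days with 60 ng/mL PMA, pretreated 1 h with compound (0.1% DMSO), then stimulated with 1 ug/mL E. coli LPS for 3 h at 37 °C. hIL-6 mRNA measured by one-step TaqMan RT-qPCR, normalized to cyclophilin. Fold expression relative to control; triplicate wells.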

Consider `Cc1noc(C)c1-c1cc(N)c2nc(NCc3ccccc3)n(Cc3ccccc3)c2c1` [compound 152, N2,1-dibenzyl-6-(3,5-dimethylisoxazol-4-yl)-1H-benzo[d]imidazole-2,4-diamine], for which the IC50 in assay [1] was at most 300 nM; with human AML MV-4-11 cells, 300 to 3000 nM; with c-myc, at most 300 nM; with hIL-6 mRNA, at most 300 nM.

Take `Cc1noc(C)c1-c1cnc2c(c1)ncn2Cc1ccc(Cl)cc1` [Example Compound 42, 4-(3-(4-chlorobenzyl)-3H-imidazo[4,5-b]pyridin-6-yl)-3,5-dimethylisoxazole]: the IC50 in assay [1] fell in the range of 300 to 3000 nM; in the assay with human AML MV-4-11 cells, 3000 to 30000 nM; with c-myc, 3000 to 30000 nM; in the assay with hIL-6 mRNA, 3000 to 30000 nM.

`CC(=O)Nc1cc(-c2c(C)noc2C)cc2c1[nH]c(=O)n2Cc1ccccc1` [compound 111, N-(1-benzyl-6-(3,5-dimethylisoxazol-4-yl)-2-oxo-2,3-dihydro-1H-benzo[d]imidazol-4-yl)acetamide]: the IC50 (in assay [1]; in the assay on human AML MV-4-11 cells; in the assay with c-myc; in the assay on hIL-6 mRNA) was at most 300 nM in each case.

On to `Cc1noc(C)c1-c1cnc2nc(NC3CCCC3)n(Cc3ccccc3)c2c1` [compound 214, 1-benzyl-N-cyclopentyl-6-(3,5-dimethylisoxazol-4-yl)-1H-imidazo[4,5-b]pyridin-2-amine], for which the IC50 (in assay [1]; with human AML MV-4-11 cells; in the assay with c-myc; in the assay on hIL-6 mRNA) was at most 300 nM each time.

As for `Cc1noc(C)c1-c1cnc2nc(C)n(Cc3ccc(C(N)=O)cc3)c2c1` [Example Compound 38, 4-((6-(3,5-dimethylisoxazol-4-yl)-2-methyl-1H-imidazo[4,5-b]pyridin-1-yl)methyl)benzamide], the IC50 in assay [1] was at most 300 nM; in the assay on c-myc, 3000 to 30000 nM; in the assay with hIL-6 mRNA, 3000 to 30000 nM. Moreover, in the assay on human AML MV-4-11 cells (72 h), the “Cell Proliferation activity” value is on record as “Not active”.

On to `Cc1noc(C)c1-c1cc(N)c2ncn(Cc3ccc(F)cc3)c2c1` [Example Compound 27, 6-(3,5-dimethylisoxazol-4-yl)-1-(4-fluorobenzyl)-1H-benzo[d]imidazol-4-amine], for which the IC50 in assay [1] was at most 300 nM; in the assay with human AML MV-4-11 cells, 300 to 3000 nM; in the assay on c-myc it was 300 to 3000 nM; with hIL-6 mRNA, 300 to 3000 nM.

For `Cc1noc(C)c1-c1cc(CN)c2[nH]c(=O)n(Cc3ccccc3)c2c1` [Example Compound 22, 4-(aminomethyl)-1-benzyl-6-(3,5-dimethylisoxazol-4-yl)-1H-benzo[d]imidazol-2(3H)-one], the IC50 (in assay [1]; in the assay with human AML MV-4-11 cells; in the assay with c-myc; in the assay on hIL-6 mRNA) was 300 to 3000 nM throughout.

Take `Cc1noc(C)c1-c1cnc2nc(C)n(Cc3cccnc3)c2c1` [compound 68, 3,5-dimethyl-4-(2-methyl-1-(pyridin-3-ylmethyl)-1H-imidazo[4,5-b]pyridin-6-yl)isoxazole]: the IC50 in assay [1] is at most 300 nM; in the assay with human AML MV-4-11 cells, 3000 to 30000 nM; in the assay on c-myc, 300 to 3000 nM; with hIL-6 mRNA it was 300 to 3000 nM.

For the molecule `CCNc1nc2c([N+](=O)[O-])cc(-c3c(C)noc3C)cc2n1C(C)c1ccccc1` (stereo not drawn) [compound 127, 6-(3,5-dimethylisoxazol-4-yl)-N-ethyl-4-nitro-1-(1-phenylethyl)-1H-benzo[d]imidazol-2-amine], the IC50 (in assay [1]; with human AML MV-4-11 cells; in the assay on c-myc; in the assay on hIL-6 mRNA) was at most 300 nM each time.

For `Cc1noc(C)c1-c1cnc2nc(C)n(Cc3ccc(Cl)s3)c2c1` [compound 77, 4-(1-((5-chlorothiophen-2-yl)methyl)-2-methyl-1H-imidazo[4,5-b]pyridin-6-yl)-3,5-dimethylisoxazole], the IC50 was at most 300 nM in assay [1], 300 to 3000 nM in the assay with human AML MV-4-11 cells, 300 to 3000 nM with c-myc and 300 to 3000 nM in the assay on hIL-6 mRNA.

Consider `Cc1noc(C)c1-c1ccc2c(c1)N(Cc1ccccc1)C(=O)NC2` [Example Compound 12, 1-Benzyl-7-(3,5-dimethylisoxazol-4-yl)-3,4-dihydroquinazolin-2(1H)-one], for which the IC50 in assay [1] was at most 300 nM; in the assay on human AML MV-4-11 cells, 300 to 3000 nM; in the assay with c-myc, 300 to 3000 nM; in the assay on hIL-6 mRNA it was 300 to 3000 nM.

Consider `Cc1noc(C)c1-c1cnc2nc(N)n(Cc3ccccc3)c2c1` [compound 216, 1-benzyl-6-(3,5-dimethylisoxazol-4-yl)-1H-imidazo[4,5-b]pyridin-2-amine], for which the IC50 in assay [1] was at most 300 nM; in the assay with human AML MV-4-11 cells, at most 300 nM; with c-myc, 300 to 3000 nM; in the assay on hIL-6 mRNA it was at most 300 nM.

Regarding `Cc1noc(C)c1-c1cnc2ccn(Cc3ccccc3)c2c1` [compound 71, 4-(1-benzyl-1H-pyrrolo[3,2-b]pyridin-6-yl)-3,5-dimethylisoxazole], the IC50 in assay [1] was at most 300 nM; in the assay with human AML MV-4-11 cells, 300 to 3000 nM; with c-myc, 300 to 3000 nM; in the assay with hIL-6 mRNA, 300 to 3000 nM.

As to `CNc1cc(-c2c(C)noc2C)cc2c1ncn2Cc1ccc(F)cc1` [Example Compound 28, 6-(3,5-dimethylisoxazol-4-yl)-1-(4-fluorobenzyl)-N-methyl-1H-benzo[d]imidazol-4-amine], the IC50 in assay [1] is at most 300 nM; in the assay with human AML MV-4-11 cells it was 300 to 3000 nM; in the assay with c-myc it was 300 to 3000 nM; with hIL-6 mRNA, 300 to 3000 nM.

On to `Cc1noc(C)c1-c1cc([N+](=O)[O-])c2[nH]c(=O)n(Cc3ccc(Cl)cc3)c2c1` [compound 91, 1-(4-chlorobenzyl)-6-(3,5-dimethylisoxazol-4-yl)-4-nitro-1H-benzo[d]imidazol-2(3H)-one], for which the IC50 in assay [1] was at most 300 nM; in the assay with human AML MV-4-11 cells, 3000 to 30000 nM; in the assay with c-myc, 300 to 3000 nM; in the assay on hIL-6 mRNA, 300 to 3000 nM.

`Cc1noc(C)c1-c1cnc2cnn(Cc3ccc(Cl)cc3)c2c1` [compound 93, 4-(1-(4-chlorobenzyl)-1H-pyrazolo[4,3-b]pyridin-6-yl)-3,5-dimethylisoxazole]: the IC50 was at most 300 nM in assay [1], 3000 to 30000 nM with human AML MV-4-11 cells, 3000 to 30000 nM in the assay on c-myc and 300 to 3000 nM with hIL-6 mRNA.

As to `Cc1noc(C)c1-c1cc([N+](=O)[O-])c2nc(C)n(CC3CCCC3)c2c1` [compound 117, 4-(1-(cyclopentylmethyl)-2-methyl-4-nitro-1H-benzo[d]imidazol-6-yl)-3,5-dimethylisoxazole], the IC50 (in assay [1]; in the assay on human AML MV-4-11 cells; with c-myc; in the assay on hIL-6 mRNA) was at most 300 nM throughout.

As to `Cc1noc(C)c1-c1cnc2c(C#N)cn(Cc3ccccc3)c2c1` [compound 88, 1-benzyl-6-(3,5-dimethylisoxazol-4-yl)-1H-pyrrolo[3,2-b]pyridine-3-carbonitrile], the IC50 was at most 300 nM in assay [1], 300 to 3000 nM in the assay on human AML MV-4-11 cells, 300 to 3000 nM with c-myc and at most 300 nM in the assay with hIL-6 mRNA.

Regarding `Cc1noc(C)c1-c1ccc2ncn(Cc3ccccc3)c2n1` [Example Compound 26, 4-(3-benzyl-3H-imidazo[4,5-b]pyridin-5-yl)-3,5-dimethylisoxazole], the IC50 in assay [1] lay within 300 to 3000 nM; in the assay on human AML MV-4-11 cells it was 300 to 3000 nM; in the assay with c-myc, 3000 to 30000 nM; with hIL-6 mRNA it was 300 to 3000 nM.

Consider `Cc1noc(C)c1-c1cnc2c(c1)ncn2Cc1ccccc1` [Example Compound 4, 4-(3-Benzyl-3H-imidazo[4,5-b]pyridin-6-yl)-3,5-dimethylisoxazole], for which the IC50 fell in the range of 300 to 3000 nM in assay [1], 3000 to 30000 nM in the assay on human AML MV-4-11 cells, 300 to 3000 nM in the assay on c-myc and 300 to 3000 nM in the assay on hIL-6 mRNA.

Take `Cc1noc(C)c1-c1ccc2c(c1)N(Cc1ccccc1)CC(=O)N2` [compound 156, 4-benzyl-6-(3,5-dimethylisoxazol-4-yl)-3,4-dihydroquinoxalin-2(1H)-one]: the IC50 in assay [1] was at most 300 nM; in the assay with human AML MV-4-11 cells it was 300 to 3000 nM; in the assay with c-myc, 300 to 3000 nM; with hIL-6 mRNA it was 300 to 3000 nM.
